The structures appear in SMILES notation.

The target of the assay is human NaV1.8 (Homo sapiens (Human), UniProt Q9Y5Y9). Briefly: Nav1.8 Qube automated patch-clamp assay. It counts as cell-based. The settings on record: human NaV1.8 stably expressed in HEK 293 cells; automated 384-well patch-clamp; resting or inactivated state not specified. Here is the method: Compounds were tested on human NaV1.8 and NaV1.5 channels stably expressed in human embryo kidney (HEK) 293 cells. Sodium current measurements on Qube® were conducted as follows: automated 384-well patch-clamp assays on the Qube® platform (Sophion Biosciences) were used to measure the inhibition of sodium flow through human NaV1.8 and NaV1.5 channels. Whole-cell voltage-clamp recordings were performed in QChips® (Sophion Biosciences) at room temperature. NaV1.8 current measurements on Qube® were obtained as follows: NaV1.8 currents were elicited with a 10 second 1 Hertz (Hz) pulse train from a holding potential of −90 millivolts (mV), delivered to the cells once per minute in the control condition (DMSO only) and after compound addition. The 1 hertz pulse train stimulation consisted of ten test pulses to 10 millivolt (mV) for 20 milliseconds (ms), each of which was followed by a 980 millisecond repolarization to −67 millivolts. At the end of the 10 second pulse train stimulation, a 5 second hyperpolarization step to −100 millivolt (mV) was used to recover NaV1.8 from fast inactivation. The peak currents elicited by the 1st and 10th test pulses were used to determine IC50 values for resting inhibition and inactivated state inhibition. NaV1.5 current measurements on Qube® were obtained as follows: NaV1.5 currents were elicited with a 20 second 3 Hertz pulse train in the control condition (DMSO only) and after compound addition. The pulse train consisted of sixty 20 millisecond test pulses to 0 millivolt from a holding potential of −80 millivolt (mV). The average peak currents elicited by the last 3 test pulses were used to determine IC50 values for NaV1.5 inhibition.
Sequence of human NaV1.8 (Q9Y5Y9 whole entry): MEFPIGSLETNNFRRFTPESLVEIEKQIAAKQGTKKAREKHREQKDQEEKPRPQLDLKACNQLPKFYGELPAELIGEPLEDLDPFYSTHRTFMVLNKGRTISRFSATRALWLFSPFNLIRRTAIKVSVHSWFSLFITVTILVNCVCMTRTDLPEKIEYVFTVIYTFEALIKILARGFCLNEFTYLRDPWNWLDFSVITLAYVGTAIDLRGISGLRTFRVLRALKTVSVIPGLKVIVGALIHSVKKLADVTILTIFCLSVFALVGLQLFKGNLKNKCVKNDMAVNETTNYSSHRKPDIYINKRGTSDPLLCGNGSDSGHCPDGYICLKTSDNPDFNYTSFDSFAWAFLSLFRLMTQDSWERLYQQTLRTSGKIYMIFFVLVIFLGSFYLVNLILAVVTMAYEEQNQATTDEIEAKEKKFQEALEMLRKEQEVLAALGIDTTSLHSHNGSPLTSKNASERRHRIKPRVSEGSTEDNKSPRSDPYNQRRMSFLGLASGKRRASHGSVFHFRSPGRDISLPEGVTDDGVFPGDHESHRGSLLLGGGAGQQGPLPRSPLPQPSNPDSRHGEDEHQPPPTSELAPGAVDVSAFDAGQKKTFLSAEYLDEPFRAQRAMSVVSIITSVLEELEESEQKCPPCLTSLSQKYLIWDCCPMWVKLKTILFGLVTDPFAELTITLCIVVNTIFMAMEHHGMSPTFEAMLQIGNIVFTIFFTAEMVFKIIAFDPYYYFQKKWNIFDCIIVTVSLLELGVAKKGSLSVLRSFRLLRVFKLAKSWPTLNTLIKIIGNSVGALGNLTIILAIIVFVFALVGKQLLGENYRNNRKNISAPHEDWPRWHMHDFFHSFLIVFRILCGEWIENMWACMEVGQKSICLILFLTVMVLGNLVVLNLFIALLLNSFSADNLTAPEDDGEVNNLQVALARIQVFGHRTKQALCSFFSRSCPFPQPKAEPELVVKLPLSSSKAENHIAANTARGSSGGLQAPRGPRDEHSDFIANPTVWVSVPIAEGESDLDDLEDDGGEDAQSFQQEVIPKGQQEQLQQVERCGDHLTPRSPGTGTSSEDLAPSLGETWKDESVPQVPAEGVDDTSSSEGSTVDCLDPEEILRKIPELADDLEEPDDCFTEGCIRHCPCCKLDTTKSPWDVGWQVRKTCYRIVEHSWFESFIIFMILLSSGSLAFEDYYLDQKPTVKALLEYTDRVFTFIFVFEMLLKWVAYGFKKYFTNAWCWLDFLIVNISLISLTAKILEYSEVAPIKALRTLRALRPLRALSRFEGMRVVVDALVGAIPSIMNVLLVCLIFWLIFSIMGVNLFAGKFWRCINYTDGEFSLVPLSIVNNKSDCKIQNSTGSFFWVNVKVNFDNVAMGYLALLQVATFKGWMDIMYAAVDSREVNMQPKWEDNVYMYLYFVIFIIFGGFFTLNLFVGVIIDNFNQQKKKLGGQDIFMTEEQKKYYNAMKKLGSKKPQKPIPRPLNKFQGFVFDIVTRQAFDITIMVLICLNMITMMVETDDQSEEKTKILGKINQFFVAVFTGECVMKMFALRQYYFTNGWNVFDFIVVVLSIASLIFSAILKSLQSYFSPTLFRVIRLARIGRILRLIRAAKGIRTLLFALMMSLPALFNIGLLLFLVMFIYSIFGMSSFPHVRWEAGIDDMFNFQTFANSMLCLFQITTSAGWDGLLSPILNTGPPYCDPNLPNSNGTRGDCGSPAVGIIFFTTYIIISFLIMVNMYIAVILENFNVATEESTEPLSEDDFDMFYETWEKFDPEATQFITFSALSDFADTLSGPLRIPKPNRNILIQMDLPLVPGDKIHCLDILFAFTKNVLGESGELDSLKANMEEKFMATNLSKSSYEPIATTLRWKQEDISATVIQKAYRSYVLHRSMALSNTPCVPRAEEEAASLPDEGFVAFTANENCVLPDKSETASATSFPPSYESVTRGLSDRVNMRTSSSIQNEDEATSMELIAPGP
The following buffers were used for the Qube® recordings: External buffer for NaV1.8 Qube® recording: 150 NaCl, 2 CaCl2, 5 KCl, 1 Mg Cl2, 10 HEPES, 12 Dextrose; External buffer for Qube® NaV1.5 recording: 120 N-Methyl-D-Glucamine, 40 NaCl, 1 KCl, 2.7 CaCl2, 5 HEPES, 0.5 MgCl2; and Internal buffer for Qube® recording: 120 CsF, 30 CsCl, 10 EGTA, 5 HEPES, 5 NaF, 2 MgCl2.
For all Qube® experiments offline analysis was used to determine percent inhibition as a function of drug concentration. IC50 values were determined by fitting to the Hill equation.
A general note: In patch-clamp work, channel activity is measured electrically.
For orientation: IC50 means the concentration at which inhibition is half-maximal. A higher IC50 goes with a need for much substance. Turning to `CN1CCC(C(NC(=O)[C@@H]2CNC(=O)N2)c2ccc(F)c(Cl)c2F)CC1C(F)(F)F` (single isomer, unassigned) [Example 78A, (S)-N-((R or S)-(3-chloro-2,4-difluoro-phenyl)((cis or trans)-1-methyl-2-(trifluoro-methyl)piperidin-4-yl)methyl)-2-oxoimidazolidine-4-carboxamide], the IC50 was found to be 4070 nM. Molecule `CC1(C)CC(C(NC(=O)[C@@H]2CNC(=O)N2)c2ccc(Cl)cc2)CCN1CC(F)(F)F` (single isomer, unassigned) [Example 91D, (4S)—N—((R or S)(4-chlorophenyl)((R or S)2,2-dimethyl-1-(2,2,2-trifluoroethyl)piperidin-4-yl)methyl)-2-oxoimidazolidine-4-carboxamide] registered a 50% inhibitory concentration (IC50) of 458 nM.

For `O=C1NC[C@@H](C(=O)NC(c2ccc(OC(F)(F)F)c(Cl)c2)c2cnn(C(F)(F)F)c2)N1` (single isomer, unassigned) [Example 41B, (S)—N—((R or S)-(3-chloro-4-(trifluoromethoxy)phenyl)(1-(trifluoromethyl)-1H-pyrazol-4-yl)-l3-methyl)-2-oxoimidazolidine-4-carboxamide], the half-maximal inhibitory concentration (IC50) was 16 nM. The figure for `O=C1NC[C@@H](C(=O)NC(c2ccc(F)c(Cl)c2)c2ccn(CC(F)(F)F)n2)N1` (single isomer, unassigned) [Example 28A, (4S)-N-{(R or S)-(3-chloro-4-fluorophenyl)[1-(2,2,2-trifluoroethyl)-1H-pyrazol-3-yl]methyl}-2-oxoimidazolidine-4-carboxamide] is 633 nM; for `O=C1NC[C@@H](C(=O)NC(c2ccc(F)c(Cl)c2F)C23CC(C(F)(F)F)(C2)C3)N1` (single isomer, unassigned) [Example 27B, (4S)—N—((R or S)-(3-chloro-2,4-difluorophenyl)(3-(trifluoromethyl)bicyclo[1.1.1]pentan-1-yl)methyl)-2-oxoimidazolidine-4-carboxamide] it is 244 nM. The value for `O=C1NC[C@@H](C(=O)NC(CC2CCC(F)(F)CC2)c2ccc(F)c(Cl)c2F)N1` (single isomer, unassigned) [Example 25B, (S)-N-((R or S)-1-(3-chloro-2,4-difluorophenyl)-2-(4,4-difluorocyclohexyl)ethyl)-2-oxoimidazolidine-4-carboxamide] was 189 nM; that for `O=C1NC[C@@H](C(=O)NC(c2ccc(OC(F)(F)F)nc2)c2ccc(F)c(C(F)(F)F)n2)N1` (single isomer, unassigned) [Example 45A, (S)-N-((R or S)-(5-fluoro-6-(trifluoro-methyl)pyridin-2-yl)(6-(trifluoromethoxy)pyridin-3-yl)methyl)-2-oxoimidazolidine-4-carboxamide] was 10 nM; that for `O=C1NC[C@@H](C(=O)NC(c2cnc(C(F)(F)F)nc2)c2ccc(F)c(Cl)c2F)N1` (single isomer, unassigned) [Example 48, (S)-N-((R or S)-(3-chloro-2,4-difluorophenyl)(2-(trifluoromethyl)pyrimidin-5-yl)methyl)-2-oxoimidazolidine-4-carboxamide] was 16 nM. On to `O=C1NC[C@@H](C(=O)NC(CC2CCC(C(F)(F)F)CC2)c2ccc(F)c(Cl)c2F)N1` (single isomer, unassigned) [Example 23A, (S)—N—((R or S)-1-(3-chloro-2,4-difluorophenyl)-2-((cis or trans)-4-(trifluoromethyl)cyclohexyl)ethyl)-2-oxoimidazolidine-4-carboxamide], for which the IC50 worked out at 15 nM. The figure for `O=C1NC[C@@H](C(=O)NC(c2ccc(F)c(Cl)c2)c2csc(C3(C(F)(F)F)CC3)n2)N1` (single isomer, unassigned) [Example 16A, (S)-N-((R or S)-(3-choro-4-fluoro-phenyl)(2-(1-(trifluoromethyl)cyclopropyl)thiazol-4-yl)methyl)-2-oxoimidazolidine-4-carboxamide] is 1.1 nM.

The molecule `N#Cc1ccc(C(NC(=O)[C@@H]2CNC(=O)N2)c2ccc(Cl)c(C(F)(F)F)c2)cc1` (single isomer, unassigned) [Example 60A, (S)-N-((R or S)-(4-chloro-3-(trifluoromethyl)-phenyl)(4-cyanophenyl)-methyl)-2-oxo-imidazolidine-4-carboxamide] came in with an IC50 of 3.1 nM. The figure for `O=C1NC[C@@H](C(=O)NC(c2ccc(OC(F)(F)F)nc2)c2ccc(F)c(C(F)(F)F)n2)N1` (single isomer, unassigned) [Example 45B, (S)-N-((R or S)-(5-fluoro-6-(trifluoro-methyl)pyridin-2-yl)(6-(trifluoromethoxy)pyridin-3-yl)methyl)-2-oxoimidazolidine-4-carboxamide] is 125 nM; for `N#Cc1ccc(C(NC(=O)[C@@H]2CNC(=O)N2)c2ccc(F)c(Cl)c2)nc1` (stereo partly drawn) [Example 86, (4S)-N-[(3-chloro-4-fluorophenyl)(5-cyanopyridin-2-yl)methyl]-2-oxoimidazolidine-4-carboxamide] it is 320 nM. The value for `O=C1NC[C@@H](C(=O)NC(CC2CCC(C(F)(F)F)CC2)c2ccc(F)c(Cl)c2F)N1` (single isomer, unassigned) [Example 23B, (S)—N—((R or S)-1-(3-chloro-2,4-difluorophenyl)-2-((cis or trans)-4-(trifluoro-methyl)cyclohexyl)ethyl)-2-oxoimidazolidine-4-carboxamide] was 4.9 nM; that for `O=C1NC[C@@H](C(=O)NC(c2cnc(C(F)(F)F)c(Cl)c2)c2ccc(F)c(Cl)c2F)N1` (single isomer, unassigned) [Example 38, (S)-N-((R or S)-(3-chloro-2,4-difluorophenyl)(5-chloro-6-(trifluoromethyl)pyridin-3-yl)methyl)-2-oxoimidazolidine-4-carboxamide] was 1.1 nM; that for `O=C1NC[C@@H](C(=O)NC(c2ccc(Cl)cc2)c2ccc(F)c(C(F)(F)F)c2)N1` (single isomer, unassigned) [Example 17A, (S)-N-((R or S)-(4-chlorophenyl)(4-fluoro-3-(trifluoro-methyl)phenyl)methyl)-2-oxoimidazolidine-4-carboxamide] was 0.6 nM. As for `CN1C(=O)NCC1C(=O)NC(c1ccc(Cl)cc1)c1ccc(Cl)cc1` (single isomer, unassigned) [Example 2B, (R or S)—N-(bis(4-chlorophenyl)methyl)-3-methyl-2-oxoimidazolidine-4-carboxamide], the IC50 amounted to 8100 nM.

Turning to `O=C1NC[C@@H](C(=O)NC(c2cnc(OC(F)F)nc2)c2ccc(F)c(Cl)c2F)N1` (single isomer, unassigned) [Example 64B, (S)-N-((R or S)-(3-chloro-2,4-difluorophenyl)(2-(difluoromethoxy)pyrimidin-5-yl)methyl)-2-oxoimidazolidine-4-carboxamide], the IC50 amounted to 805 nM. The value for `O=C1NC[C@@H](C(=O)NC(c2ccc(OC(F)(F)F)cc2)c2ccc(Cl)c(C3CC3)n2)N1` (single isomer, unassigned) [Example 40A, (S)-N-((R or S)-(5-chloro-6-cyclopropylpyridin-2-yl)(4-(trifluoromethoxy)phenyl)methyl)-2-oxoimidazolidine-4-carboxamide] was 21 nM; that for `O=C1NC[C@@H](C(=O)NC(c2ccc(OCC(F)(F)F)nc2)c2ccc(F)c(Cl)c2F)N1` (single isomer, unassigned) [Example 33B, (S)—N—((R or S)-(3-chloro-2,4-difluorophenyl)(6-(2,2,2-trifluoroethoxy)pyridin-3-yl)methyl)-2-oxoimidazolidine-4-carboxamide] was 39 nM; that for `O=C1NC[C@@H](C(=O)NC(c2ccc(OCC(F)(F)F)nc2)c2ccc(F)c(Cl)c2F)N1` (single isomer, unassigned) [Example 33A, (S)—N—((R or S)-(3-chloro-2,4-difluorophenyl)(6-(2,2,2-trifluoroethoxy)pyridin-3-yl)methyl)-2-oxoimidazolidine-4-carboxamide] was 1.3 nM. As to `CS(=O)(=O)c1ccc(C(NC(=O)[C@@H]2CNC(=O)N2)c2ccc(F)c(Cl)c2)cc1` (single isomer, unassigned) [Example 85B, (S)-N-((R or S)-(3-chloro-4-fluorophenyl)(4-(methylsulfonyl)phenyl)methyl)-2-oxoimidazolidine-4-carboxamide], the IC50 was found to be 1280 nM. The figure for `CC(N1CC(C)(C(NC(=O)[C@@H]2CNC(=O)N2)c2ccc(F)c(Cl)c2F)C1)C(F)(F)F` (single isomer, unassigned) [Example 65B, (S)—N—((R or S)-(3-chloro-2,4-difluorophenyl)(3-methyl-1-((R or S)-1,1,1-trifluoropropan-2-yl)azetidin-3-yl)methyl)-2-oxoimidazolidine-4-carboxamide] is 302 nM.

These data come from patent US20230312528A1, “2-OXO-IMIDAZOLIDINE-4-CARBOXAMIDES AS NAV1.8 INHIBITORS” (Merck Sharp & Dohme LLC, priority 2020, published 2023).
